Assay results from patent US20230146795A1, “ENHANCEMENT OF ANTI-TUMOR ACTIVITY OF SHP2 INHIBITOR PYRIMIDINONE IN COMBINATION WITH NOVEL CANCER MEDICINES IN CANCERS” (TAIHO PHARMACEUTICAL CO., LTD., priority 2020, published 2023).

What was measured:
Type in all cases: cell-based, human
[1] = system: 394 cell lines that do not depend on KRAS; assay: In vitro cell line screening, 2D monolayers (CellTiter-Glo), KRAS-independent panel; settings: Non-KRAS panel, sensitive = maximum inhibition greater than 50% relative to DMSO, max 3 μM Compound 1, 1 μM Compound 9, 120-hour incubation
Description: (§1) Cells from human cancer cells lines (from commercial sources such as ATCC or ECCAC) were grown as 2D monolayers by seeding onto flat-bottom 96-well tissue culture plates (Corning). Cells were allowed to recover for 16-24 hours prior to compound treatment. Compounds or dimethyl sulfoxide (DMSO) were added at various combinations of compound concentrations in a final DMSO concentration of up to 0.5% (v/v). Following a total of 120-hour incubation, CellTiter-Glo reagent(registered trademark) (Promega) was added. Plates were incubated for 10 minutes with gentle shaking at room temperature to lyse the cells, then incubated for further 10 minutes at room temperature to stabilize luminescence signal. After mixing, the mixture was transferred to a fresh plate, and luminescence was determined on EnVision plate reader (Perkin Elmer).
(§2) For both 3D and 2D assays, the combination was tested as matrix of various concentrations of Compound 1 and Compound 9. The maximum concentrations of Compound 1 and Compound 9 used were 3 μM and 1 μM, respectively. Signals were normalized to that of the average of the DMSO control wells. […] For each cell line, the maximum % inhibition values were obtained for Compound 1 alone, Compound 9 alone and the combination of both compounds. The degree of drug interaction (i.e. synergy, additivity or antagonism) was quantified for each cell line by the Bliss independence model using the Synergyfinder R package (Ref: He L. et al. (2018) Methods for High-throughput Drug Combination Screening and Synergy Scoring. In: von Stechow L. (eds) Cancer Systems Biology. Methods in Molecular Biology, vol 1711. Humana Press, New York, N.Y.). For each cell line, a single score metric, the sum of synergy and antagonism across screened drug concentrations (SUM_SYN_ANT) (Ref: Di Veroli G. Y. et al (2016) Bioinformatics 32(18):2866-2868), was calculated. Synergy was defined as a score of 21 or above.

[2] = system: 97 cell lines harboring driver mutations in KRAS; assay: In vitro cell line screening, 3D cultures (CellTiter-Glo 3D), KRAS panel; settings: sensitive = maximum inhibition greater than 50% relative to DMSO, max 3 μM Compound 1, 1 μM Compound 9, 120-hour incubation
Description: The effect of Compound 1 in combination with an ERK inhibitor, Compound 9, on 97 cell lines harboring driver mutations in KRAS (G12A, G12C, G12F, G12R, G12S, G12V, G13C, G13D, A59G, Q61H, Q61K, Q61L or A146T) was assessed using the following technique. Cells from human cancer cells lines (from commercial sources such as ATCC or ECCAC) were grown as 3D cultures by seeding cells into round-bottom ultra-low attachment 96-well tissue culture plates (Corning) followed by centrifugation. Cells were allowed to recover for 16-24 hours prior to compound treatment. Compounds or dimethyl sulfoxide (DMSO) were added at various combinations of compound concentrations in a final DMSO concentration of up to 0.5% (v/v). Following a total of 120-hour incubation, CellTiter-Glo 3D Reagent(registered trademark) (Promega) was added. Plates were incubated for 10 minutes with gentle shaking at room temperature to lyse the cells, then incubated for further 40 minutes at room temperature to stabilize luminescence signal. After mixing, the mixture was transferred to a fresh plate and luminescence was determined on EnVision plate reader (Perkin Elmer).
as §2

491 cell lines = assay: In vitro cell line screening, both panels overall; settings: Total panel, sensitive = maximum inhibition greater than 50% relative to DMSO, max 3 μM Compound 1, 1 μM Compound 9, 120-hour incubation
Description: as §1, with “as 3D cultures” for “as 2D monolayers”, “seeding cells into round-bottom ultra-low attachment” for “seeding onto flat-bottom”, “plates (Corning) followed by centrifugation.” for “plates (Corning).”, “CellTiter-Glo 3D Reagent(registered” for “CellTiter-Glo reagent(registered”, “further 40” for “further 10”, “fresh plate” for “fresh plate,”
as §1, §2

Compound: Cn1nc2ccc(-c3c[nH]c4nc(N5[C@H]6CC[C@@H]5[C@H](N)C6)n(C)c(=O)c34)c(Cl)c2c1Cl [Compound 1, 2-((1R,2R,4S)-2-amino-7-azabicyclo[2.2.1]heptan-7-yl)-5-(3,4-dichloro-2-methyl-2H-indazol-5-yl)-3-methyl-3,7-dihydro-4H-pyrrolo[2,3-d]pyrimidin-4-one]
- Number of cell lines sensitive [1]: 137
- Number of cell lines sensitive (% of total) [1]: (34.8) %
- Number of cell lines sensitive [2]: 38
- Number of cell lines sensitive (% of total) [2]: (39.2) %
- Number of cell lines sensitive (491 cell lines): 175
- Number of cell lines sensitive (% of total) (491 cell lines): (35.6) %
